The test system of experiment [1] is Shionogi mouse mammary carcinoma cells. Briefly: Antiandrogenic activity: inhibition of DHT-induced proliferation of Shionogi cells. To be noted: Table 4′, DHT-induced proliferation; for Antiandrogenic Activity Shionogi, DHT E^−6: E^−6 (10^−6 M). The class given is cell-based. Here is the method: The manner in which the inhibition is determined is described in “Other Tests; B-Androgenic/Antiandrogenic Activity”. Lower numbers are desirable. ND means that a determination was not done.
(§1) Androgenic/antiandrogenic activity of some preferred compounds has been measured using the Shionogi mouse mammary carcinoma cells.
(§2) Minimal essential culture medium (MEM), non-essential amino acids, and fetal calf serum were purchased from Flow Laboratories. In order to remove endogenous steroids, serum was incubated overnight at 4° C. with 1% activated charcoal (Norit A, Fisher) and 0.1% Dextran T-70 (Pharmacia). A 2-h supplementary adsorption was performed at 25° C. in order to further remove protein-bound steroids. Serum was also inactivated by a 20-min incubation at 56° C.
(§3) 5α-dihydrotestosterone (DHT) was obtained from Steraloids. The antiandrogen hydroxyflutamide (OH-FLU) was kindly supplied by Drs. T. L. Nagabuschan and R. Neri (Schering Corporation, Kenilworth, U.S.A.).
(§4) Shionogi male mice bearing androgen-sensitive mammary tumors were obtained from Drs. Keishi Matsumoto, Osaka, Japan, and Yvonne Lefebvre, Ottawa, Canada. For primary culture, tumors were excised and washed in ice-cold sterile 25 mM Hepes buffer (137 mM NaCl; 5 mM KCl; 0.7 mM Na2HPO4; 10 mM glucose, pH 7.2). After mincing with scissors, the tumor minces were digested for 2 h at 37° C. in Hepes buffer containing 3.8 mg/ml collagenase (Clostridium, Boehringer), 1.5 mg/ml hyaluronidase II (Sigma), and 3% bovine serum albumin fraction V (Schwartz-Mann). Dispersed cells were collected by centrifugation (500×g for 10 min), washed twice by suspension in minimal essential medium (MEM) containing 5% dextran-coated charcoal-treated fetal calf serum (DCC-FCS), 1% non-essential amino acids, 10 IU/ml penicillin, 50 μg/ml streptomycin, and 100 nM dihydrotestosterone (DHT) (Steraloids).
(§5) Cells were plated in the same medium at a density of 75 000 cells/ml in 75 cm^2 flasks under an atmosphere of 5% carbon dioxide in air at 37° C. The medium was changed weekly. The steroids and antisteroids were dissolved in ethanol and kept in stock solutions chosen to yield final ethanol concentrations less than 0.01% in the culture medium.
(§6) Cells were subcultured at near-confidence by gentle digestion in a solution of 0.1% pancreatin (Flow Laboratories) in Hepes buffer containing 3 mM ethylenediaminetetraacetic acid (EDTA) (pH 7.2). Cells were pelleted by centrifugation, resuspended in culture medium, counted in a Coulter counter, and replated as described above. Soft agar cloning was performed as described (Stanley et al., Cell 10: 35-44, 1977) in the presence of 100 nM DHT.
(§7) Cells were plated in 24-well plates at a density of 20 000 cells/well. The indicated increasing concentrations of agents were added to triplicate dishes, and cells were grown for 10-12 days with changes of medium every 3-4 days. Cell number was measured by direct counting in a Coulter counter.
(§8) ED50 values of action of DHT and glucocorticoids were calculated according to a least-square regression as described (Rodbard, Endocrinology 94: 1427-1431, 1974). Statistical significance was calculated according to a multiple-range test (Kramer, Biometrics 12: 307-310,1956).

In experiment [2] the target is T1, human type 2 17β-hydroxysteroid dehydrogenase (Homo sapiens, UniProt P37059).
T1 construct: expressed in transfected cells; host or cells: 293 cells, transient transfection; microsomal fraction (100 000×g pellet)
T1 sequence (P37059 1-387): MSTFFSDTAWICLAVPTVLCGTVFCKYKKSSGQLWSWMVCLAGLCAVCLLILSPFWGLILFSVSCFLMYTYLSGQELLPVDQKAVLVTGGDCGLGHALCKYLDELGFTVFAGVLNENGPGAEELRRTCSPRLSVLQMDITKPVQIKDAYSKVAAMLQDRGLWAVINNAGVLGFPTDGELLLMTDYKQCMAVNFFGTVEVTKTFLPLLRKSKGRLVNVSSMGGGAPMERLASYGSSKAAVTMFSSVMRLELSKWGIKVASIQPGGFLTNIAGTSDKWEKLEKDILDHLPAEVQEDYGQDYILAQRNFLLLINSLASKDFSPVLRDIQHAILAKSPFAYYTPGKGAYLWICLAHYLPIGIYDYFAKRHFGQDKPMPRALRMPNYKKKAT
The experiment is described as follows: Enzymatic assay for type 2 17β-HSD. The class given is biochemical. To be noted: Table 4′, bracketed values, 3 · 10^−8M. Here is the method: The manner in which IC50 was determined is described in “Efficacy of Preferred Inhibitors: VI. Enzymatic assay for types 1, 2, and 3 17β-HSD and types 1 and 3 3α-HSD”. […] numbers of IC50 are desirable. Blank means that a determination was not done. […]
Enzyme sources. 293 cells transiently transfected with expression vectors encoding types 1, 2 and 3 17β-HSD (Luu-The et al., J. Steroid Biochem. Molec. Biol., 55: 581-587, 1995), types 1 and 2 5α-reductase (Luu-The et al., J. Invest. Dermatol., 102: 221-226, 1994) and types 1 and 3 3α-HSD (Dufort et al. Biochem. Biophys. Res. Commun. 228: 474-479, 1996), using the calcium phosphate procedure (Kingston et al., In: Current Protocols in Molecular Biology. Edited by E. M. Ausbel, R. Brent, R. E. Kingston, D. D. Moore, J. G. Seidman, J. A. Smith, K. Struhl. John Wiley & Sons, New York, pp. 9.1.1-9.1.9, 1991; Luu-The et al., J. Invest. Dermatol., 102: 221-226, 1994). For assays using cell subfractions, cells were sonicated in 50 mM sodium phosphate buffer (pH 7.4), containing 20% glycerol and 1 mM EDTA and centrifuged at 10 000×g for 30 min before centrifugation for 100 000×g for 1 h to separate the mitochondrial and microsomal fractions, respectively. The cytosol fractions (100 000×g supernatant) was used to determine type 1 activity while the microsomal fraction (pellet at 100 000×g) was used for measurement of types 2 and 3 17β-HSD activities.
Incubation. The enzymatic reaction was carried out at 37° C. in 1 ml of 50 mM sodium phosphate buffer, pH 7.4, containing 20% glycerol, 1 mM EDTA, and 2 mM cofactors (NADPH or AND^+) for 1 h in the presence of 0.1 μM ^14C-labeled substrate: estrone and 4-dione for types 1 and […] 17β-HSD, respectively, testosterone for type 2 17β-HSD as well as types 1 and 2 5α-reductases, DHT for types 1 and 3 3α-HSD activities, and the indicated concentration of inhibitor.
Extraction of metabolites, migration on TLC and quantification were as described above for the assay of type 5 17β-HSD.

Experiment [3] deals with Shionogi mouse mammary carcinoma cells. Briefly: Androgenic activity: stimulation of proliferation of Shionogi cells. The class given is cell-based. The settings on record: Table 4′. Here is the method:
In column 9, the androgenic activity of preferred type 5 inhibitors expressed as the percentage of stimulation of proliferation of Shionogi cells at concentrations of 10^−7 M (left number) and 10^−6 M (right number) of inhibitor. The manner in which the stimulation is determined is described in “Other Tests; B-Androgenic/Antiandrogenic Activity”. Lower numbers are desirable. ND means that a determination was not done.
as §1, §2, §3, §4, §5, §6, §7, §8

The target of experiment [4] is T2, human type 5 17β-hydroxysteroid dehydrogenase (Homo sapiens, UniProt P42330).
T2 construct: screen again a human placental λgt11 cDNA to get the full length cDNA clone; expressed in transfected cells; host or cells: human embryonal kidney 293 cells (pCMV / pCMV-neo vector)
T2 sequence (P42330 1-323): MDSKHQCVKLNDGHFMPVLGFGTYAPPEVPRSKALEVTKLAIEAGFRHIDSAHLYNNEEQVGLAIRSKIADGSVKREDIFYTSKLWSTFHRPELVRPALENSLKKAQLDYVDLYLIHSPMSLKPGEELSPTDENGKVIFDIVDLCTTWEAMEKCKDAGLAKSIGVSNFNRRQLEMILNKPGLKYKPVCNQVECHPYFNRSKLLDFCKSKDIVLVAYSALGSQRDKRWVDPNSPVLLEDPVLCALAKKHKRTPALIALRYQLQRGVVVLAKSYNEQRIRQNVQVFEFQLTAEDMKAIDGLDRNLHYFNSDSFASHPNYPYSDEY
Briefly: Inhibition of human type 5 17β-HSD activity in transfected 293 cells. The settings on record: Table 4′; read-out: Inhibition Type V 17β-HSD IC50. The class given is cell-based. Here is the method: The manner in which IC50 was determined is described in “Efficacy of the Preferred Inhibitors”. Lower numbers for IC50 are desirable.
Using a oligoprimer pair (5′-GGA-AAT-CGT-GAC-AGG-GAA-TGG-ATT-CCA-AAC-AG-3′, 5′-GGA-ATT-CTT-TAT-TGT-ATT-TCT-GGC-CTA-TGG-AGT-GAG-3′) derived from human aldoketoreductase (Qin et al., J. Steroid Biochem. Molec. Biol. 46: 673-679, 1993) and polymerase chain reaction (PCR), we have amplified from a human placental λgt11 cDNA library (Clontech Laboratories Inc., Palo Alto, Calif.) a cDNA fragment that was used as probe to screen again a human placental λgt11 cDNA to get the full length cDNA clone. The amplified cDNA fragment was purified on agarose gel and labeled with [α^32P]dCTP (Amersham Corp.) using the random primer labeling kit from Pharmacia Inc. PCR amplification reaction medium contained 50 mM KCl, 10 mM Tris-HCl, pH 8.3, 0.1% gelatin, 1 mM MgCl2, 250 μM dNTP, 0.25 μM oligonucleotide primers, and 200 ng of DNA prepared from human placental λgt11 cDNA library. The aqueous phase was overlaid with 75 μL of mineral oil to avoid evaporation. The mixture was heated at 98° C. for 5 min, following the temperature reduction to 72° C., 1 unit of Taq DNA polymerase was added. Using a DNA Thermal Cycler (Perkin-Elmer Corp.), 30 cycles of amplification were carried out using a step program (94° C., 1 min; 60° C., 1 min; and 72° C., 1 min)/cycle.
Approximately 5×10^5 recombinant phage plaques were screened with 1.5×10^6 cpm/ml of the probe. Prehybridization was performed for 4 h at 42° C. in 50% formamide, 5× Denhardt's solution (1× Denhardt's being 0.02% polyvinyl pyrrolidone, 0.02 Ficoll, 0.02 bovine serum albumin), 5×SSPE (1×SSPE being 0.18M NaCl, 10 mM NaH2PO4, pH 7.4, 1 mM EDTA), 0.1% SDS, and 100 μg/ml yeast tRNA. The probe was denatured by heating at 100° C. for 5 min, before being added to the hybridization solution at 42° C. overnight. Filters were then washed twice at room temperature in 2×SSC (1×SSC being […], pH 7.0), 0.1% SDS, and twice in 0.1×SSC, 0.1% SDS at 60° C. Positive recombinant plaques were purified by replating twice and grown in liquid culture. Phage DNA were isolated by centrifugation for 90 min at 105,000×g, and DNA was then isolated by phenol extraction and precipitation with isopropanol (Karen et al. 1987; In: Current Protocols in Molecular Biology (F. M. Ausubel, R. Brent, E. Kingston, D. D. Moore, T. G. Seidman, T. A. Smith and K. Struhl, eds), Wiley & Sons, New York, pp. 1.13.1-1.13.6).
The phage DNA were digested with EcoRI restriction enzymes and the resulting cDNA fragments were inserted into the EcoRI site downstream to the cytomegalovirus (CMV) promoter of the pCMV vector (kindly provided by Dr. Matthew, Cold Spring Harbor, N.Y., USA). Recombinant pCMV plasmids were amplified in Escherichia Coli DH5α competent cells, and were isolated by alkaline lysis procedure (Maniatis et al., In: Molecular cloning: a laboratory manual, Cold Spring Harbor Laboratory., 1982). Sequencing of double-stranded plasmid DNA was performed according to the dideoxy chain termination method (Sanger et al., PNAS 74: 5453-5467, 1977) using a T7 DNA polymerase sequencing kit (Pharmacia LKB Biotechnology). To avoid errors, all sequences were determined by sequencing both strands of the DNA. Oligonucleotide primers were synthesized in our laboratory with a 394 DNA/RNA synthesizer (Applied Biosystem).
The pCMV vector contain 576 nucleotides of the pCMV promoter (followed by 432 bp of small t intron (fragment 4713-4570) and poly adenylation signal (2825-2536)of SV40, followed by 1989 bp of the Pvu II(628)-AatII (2617) fragment from pUC 19 vector (New England Biolabs) that contains an E. Coli origin of replication and an ampicillin resistance gene for propagation in E. Coli. […]

What is called IC50 is the midpoint of a concentration-inhibition curve. The inhibition is the percentage by which the read-out fell short of the control.

Regarding `CCC1(CC)CC[C@@]2(CC[C@H]3[C@@H]4CCc5cc(O)ccc5[C@H]4CC[C@@]32C)OC1=O` [EM-1416, 1,3,5(10)-Estratrien-3-ol-17(R)-spiro-2′-(5′,5′-diethyl-6′-oxo)tetrahydropyran], in experiment [1], the “Antiandrogenic Activity Shionogi, DHT E^−6” value is −41% and the “Antiandrogenic Activity Shionogi, DHT E^−7” value is on record as 26%. Also, in experiment [2], the “Inhibition Type 2 17β-HSD Activity [% Inh. at 3 · 10^−8M]” value was “[76] %”. Besides, in experiment [3], the “Androgenic Activity Shionogi, Basal E^−6” value is −4% and the “Androgenic Activity Shionogi, Basal E^−7” value is given as 28%.

Take `CCC1(CC)CC[C@@]2(CC[C@H]3[C@@H]4CCc5cc(OC)ccc5[C@H]4CC[C@@]32C)OC1=O` [EM-1419, 3-Methoxy-1,3,5(10)-estratrien-17(R)-spiro-2′-(5′,5′-diethyl-6′-oxo)tetrahydropyran]: in experiment [1], the “Antiandrogenic Activity Shionogi, DHT E^−6” value is recorded as −64% and the “Antiandrogenic Activity Shionogi, DHT E^−7” value amounted to 2%. The “Inhibition Type 2 17β-HSD Activity [% Inh. at 3 · 10^−8M]” value in experiment [2] is “[74] %”. In addition, in experiment [3], the “Androgenic Activity Shionogi, Basal E^−6” value is −29% and the “Androgenic Activity Shionogi, Basal E^−7” value is 16%.

As to `CC1(C)CCC2(CCC3C4CC(=O)c5cc(O)ccc5C4CCC32C)OC1=O` (stereo not drawn) [EM-01608-D], in experiment [4], the IC50 was found to be 3.6 ± 0.5 nM. Moreover, in experiment [2] (read-out: Inhibition Type 2 17β-HSD Activity [% Inh. at 3 · 10^−8M]), the inhibition was found to be 58%.
